Drawing on paper PMC3330828 (2012), this text covers IC50 for 2 substances.

One test deals with T1, caspase-1 (Homo sapiens, UniProt P29466).
T1 sequence (P29466 120-297): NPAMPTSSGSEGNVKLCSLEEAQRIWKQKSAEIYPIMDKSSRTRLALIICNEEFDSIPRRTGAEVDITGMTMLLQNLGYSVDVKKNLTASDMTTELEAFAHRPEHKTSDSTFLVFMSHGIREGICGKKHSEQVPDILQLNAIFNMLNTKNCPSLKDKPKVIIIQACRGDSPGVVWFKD
T1 sequence (P29466 317-404): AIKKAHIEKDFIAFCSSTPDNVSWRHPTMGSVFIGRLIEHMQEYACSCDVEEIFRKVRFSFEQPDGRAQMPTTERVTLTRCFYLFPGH
As to the kind of experiment: in vitro fluorometric enzyme assay. Format: biochemical.

For the next test, the target named is T2, caspase-3 (Homo sapiens, UniProt P42574).
T2 sequence (P42574 29-175): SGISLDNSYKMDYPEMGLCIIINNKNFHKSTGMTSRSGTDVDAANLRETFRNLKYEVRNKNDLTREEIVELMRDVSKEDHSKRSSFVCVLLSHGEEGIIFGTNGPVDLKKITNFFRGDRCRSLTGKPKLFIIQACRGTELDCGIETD
T2 sequence (P42574 176-277): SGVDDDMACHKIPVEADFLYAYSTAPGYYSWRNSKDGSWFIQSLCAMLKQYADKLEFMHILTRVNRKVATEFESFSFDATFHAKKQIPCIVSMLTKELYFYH
Description: in vitro fluorometric enzyme assay. Format: biochemical.

One may read the IC50 as the point on the concentration scale where inhibition reaches its midpoint. With berkedrimane A [compound 1], the IC50 against caspase-1 came out at 100 µM; at caspase-3 it was 200 µM.

For berkedrimane B [compound 2], the IC50 was determined as 90 µM against caspase-1 and 50 µM against caspase-3.
